According to PubChem BioAssay (NCI):
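Exposure lasted 48 hours, with cells grown in 96-well plates and compounds tested at five concentrations. Abbreviation: GI50, concentration required for 50% inhibition of growth. The concentration for full growth arrest is given as TGI.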

Columns and labels:
Assay in all cases: NCI anticancer screen, dose series, 48 h
[1] = test system: T-47D breast
[2] = test system: MDA-MB-231 breast
[3] = test system: LOX IMVI melanoma
[4] = test system: SF-295 CNS
[5] = test system: RXF 393 renal
[6] = test system: PC-3 prostate
[7] = test system: HCC-2998 colon
[8] = test system: UO-31 renal
[9] = test system: EKVX NSCLC
[10] = test system: CAKI-1 renal
[11] = test system: COLO 205 colon
[12] = test system: 786-0 renal
[13] = test system: NCI-H522 lung
[14] = test system: HL-60(TB) leukemia
[15] = test system: RPMI-8226 leukemia
[16] = test system: U251 CNS
[17] = test system: NCI/ADR-RES ovarian
[18] = test system: M14 melanoma
[19] = test system: OVCAR-4 ovarian
[20] = test system: ACHN renal
[21] = test system: CCRF-CEM leukemia
[22] = test system: UACC-62 melanoma
[23] = test system: DU-145 prostate
[24] = test system: UACC-257 melanoma
[25] = test system: HCT-116 colon
[26] = test system: HOP-92 NSCLC
[27] = test system: NCI-H226 lung
[28] = test system: A549 NSCLC
[29] = test system: NCI-H23 lung
[30] = test system: TK-10 renal
[31] = test system: HT29 colon
[32] = test system: MOLT-4 leukemia
[33] = test system: SF-539 CNS
[34] = test system: MDA-MB-435
[35] = test system: SK-MEL-5 melanoma
[36] = test system: MDA-N
[37] = test system: K-562 leukemia
[38] = test system: A498 renal
[39] = test system: SK-MEL-28 melanoma
[40] = test system: SF-268 CNS
[41] = test system: KM12 colon
[42] = test system: OVCAR-3 ovarian
[43] = test system: SK-OV-3 ovarian
[44] = test system: SR leukemia
[45] = test system: SK-MEL-2 melanoma
[46] = test system: MCF7 breast
[47] = test system: HS 578T breast
[48] = test system: HOP-62 NSCLC
[49] = test system: IGROV1 ovarian
[50] = test system: OVCAR-5 ovarian
[51] = test system: SN12C renal
[52] = test system: BT-549 breast
[53] = test system: SNB-75 CNS
[54] = test system: SNB-19 CNS
[55] = test system: HCT-15 colon
[56] = test system: SW-620 colon
[57] = test system: OVCAR-8 ovarian
[58] = test system: MALME-3M melanoma
[59] = test system: NCI-H460 lung

CC(C)SC1SCC2C(=O)N(C)C3(CC3C)C(=O)OCC(NC(=O)c3nc4ccccc4cc3O)C(=O)NC(C)C(=O)N(C)C1C(=O)N(C)C1(CC1C)C(=O)OCC(NC(=O)c1nc3ccccc3cc1O)C(=O)NC(C)C(=O)N2C (stereo not drawn)
TGI [1]: > 100 µM
TGI [2]: > 100 µM
TGI [3]: < 0.0001 µM
TGI [4]: 0.00809 µM
TGI [5]: < 0.0001 µM
TGI [6]: < 0.0001 µM
TGI [7]: < 0.0001 µM
TGI [8]: < 0.0001 µM
TGI [9]: 0.0759 µM
TGI [10]: 0.00028 µM
TGI [11]: < 0.0001 µM
TGI [12]: < 0.0001 µM
TGI [13]: < 0.0001 µM
TGI [14]: < 0.0001 µM
TGI [15]: < 0.0001 µM
TGI [16]: < 0.0001 µM
GI50 [17]: 0.0334 µM
TGI [18]: < 0.0001 µM
TGI [19]: < 0.0001 µM
TGI [20]: > 100 µM
TGI [21]: < 0.0001 µM
TGI [22]: < 0.0001 µM
TGI [23]: > 100 µM
TGI [24]: < 0.0001 µM
TGI [25]: > 100 µM
TGI [26]: < 0.0001 µM
TGI [27]: < 0.0001 µM
TGI [28]: 17 µM
TGI [29]: < 0.0001 µM
TGI [30]: < 0.0001 µM
TGI [31]: 2.88 µM
TGI [32]: < 0.0001 µM
TGI [33]: < 0.0001 µM
TGI [34]: < 0.0001 µM
TGI [35]: < 0.0001 µM
TGI [36]: < 0.0001 µM
TGI [37]: < 0.0001 µM
TGI [38]: < 0.0001 µM
TGI [39]: < 0.0001 µM
TGI [40]: 0.00129 µM
TGI [41]: < 0.0001 µM
TGI [42]: < 0.0001 µM
TGI [43]: 4.92 µM
TGI [44]: < 0.0001 µM

CCN(Cc1ccc(F)cc1F)c1ccc(CO)c(Cl)c1
GI50 [1]: 0.105 µM
TGI [1]: 0.701 µM
GI50 [2]: 12.1 µM
TGI [2]: 25.5 µM
GI50 [45]: 5.36 µM
TGI [45]: 21.3 µM
GI50 [3]: 14.4 µM
TGI [3]: 29 µM
GI50 [4]: 0.513 µM
TGI [4]: 14.7 µM
GI50 [5]: 2.26 µM
TGI [5]: 14.5 µM
GI50 [6]: 16.3 µM
TGI [6]: 49.2 µM
GI50 [7]: 4.26 µM
TGI [7]: 20.4 µM
GI50 [8]: 4.52 µM
TGI [8]: 43.8 µM
GI50 [10]: 5.11 µM
TGI [10]: > 54.1 µM
GI50 [11]: 3.31 µM
TGI [11]: 9.24 µM
GI50 [12]: 5.91 µM
TGI [12]: 29 µM
GI50 [13]: 14.8 µM
TGI [13]: 37.6 µM
GI50 [46]: 0.238 µM
TGI [46]: 12.6 µM
GI50 [14]: 8.47 µM
TGI [14]: 38.1 µM
GI50 [15]: 2.96 µM
TGI [15]: 32 µM
GI50 [47]: 18.9 µM
TGI [47]: > 72.8 µM
GI50 [16]: 0.641 µM
TGI [16]: 18.8 µM
GI50 [48]: 1.84 µM
TGI [48]: 20.2 µM
GI50 [17]: 12.6 µM
TGI [17]: 32 µM
GI50 [18]: 20.3 µM
TGI [18]: > 55.6 µM
GI50 [19]: 0.218 µM
TGI [19]: 1.65 µM
GI50 [20]: 14.1 µM
TGI [20]: 38.3 µM
GI50 [21]: 23.9 µM
TGI [21]: > 88.5 µM
GI50 [49]: 0.105 µM
TGI [49]: 0.518 µM
GI50 [22]: 0.0981 µM
TGI [22]: 0.581 µM
GI50 [23]: 20.1 µM
TGI [23]: > 70.9 µM
GI50 [24]: 0.128 µM
TGI [24]: 0.372 µM
GI50 [25]: 0.0861 µM
TGI [25]: 12.5 µM
GI50 [26]: 1.18 µM
TGI [26]: 16.5 µM
GI50 [27]: 0.0945 µM
TGI [27]: 0.219 µM
GI50 [50]: 0.0685 µM
TGI [50]: 0.317 µM
GI50 [28]: 1.85 µM
TGI [28]: 21.2 µM
GI50 [29]: 9.05 µM
TGI [29]: 24.3 µM
GI50 [30]: 0.0434 µM
TGI [30]: 0.245 µM
GI50 [51]: 11.2 µM
TGI [51]: 23.8 µM
GI50 [31]: 5.65 µM
TGI [31]: 30.4 µM
GI50 [52]: 14.3 µM
TGI [52]: 34.8 µM
GI50 [53]: 12.8 µM
TGI [53]: 45.3 µM
GI50 [32]: 19.7 µM
TGI [32]: > 71.5 µM
GI50 [33]: 16.1 µM
TGI [33]: 31.7 µM
GI50 [34]: 21 µM
TGI [34]: > 59.6 µM
GI50 [35]: 5.75 µM
TGI [35]: 20.5 µM
GI50 [37]: 1.65 µM
TGI [37]: > 100 µM
GI50 [38]: 0.0316 µM
TGI [38]: 0.136 µM
GI50 [39]: 14.1 µM
TGI [39]: 27.7 µM
GI50 [54]: 19.9 µM
TGI [54]: 68.8 µM
GI50 [55]: 11.2 µM
TGI [55]: 30.5 µM
GI50 [56]: 0.917 µM
TGI [56]: > 45.6 µM
GI50 [40]: 22.7 µM
TGI [40]: > 66.9 µM
GI50 [57]: 12.9 µM
TGI [57]: 41.3 µM
GI50 [58]: 18.2 µM
TGI [58]: 42.8 µM
GI50 [41]: 16.6 µM
TGI [41]: 32.9 µM
GI50 [42]: 0.389 µM
TGI [42]: 2.07 µM
GI50 [59]: 0.259 µM
TGI [59]: 6.68 µM
GI50 [43]: 7.65 µM
TGI [43]: 22.1 µM
GI50 [44]: 23.2 µM
TGI [44]: 82.1 µM
